Test results from ChEMBL document CHEMBL1201862, “PubChem BioAssay data set” (2004).
The source made the active and inactive calls.

How the values were obtained:
[1] = biological target: Eukaryotic translation initiation factor 4E (Mus musculus, UniProt P63073); assay: blockers of eIF4G binding by eIF4E – biochemical, TR-FRET, dose response (AID 855); assay type: functional;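 further: potency for disrupting eIF4E binding to eIF4GI seen as loss of FRET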
[2] = biological target: T1, Leucine aminopeptidase (Plasmodium falciparum 3D7, UniProt Q8IL11); assay: P. falciparum M17LAP inhibitors, primary screen, biochemical, fluorogenic H-Leu-NHMec substrate, 1536-well (AID 1619); assay type: functional
T1 sequence (Q8IL11 whole entry): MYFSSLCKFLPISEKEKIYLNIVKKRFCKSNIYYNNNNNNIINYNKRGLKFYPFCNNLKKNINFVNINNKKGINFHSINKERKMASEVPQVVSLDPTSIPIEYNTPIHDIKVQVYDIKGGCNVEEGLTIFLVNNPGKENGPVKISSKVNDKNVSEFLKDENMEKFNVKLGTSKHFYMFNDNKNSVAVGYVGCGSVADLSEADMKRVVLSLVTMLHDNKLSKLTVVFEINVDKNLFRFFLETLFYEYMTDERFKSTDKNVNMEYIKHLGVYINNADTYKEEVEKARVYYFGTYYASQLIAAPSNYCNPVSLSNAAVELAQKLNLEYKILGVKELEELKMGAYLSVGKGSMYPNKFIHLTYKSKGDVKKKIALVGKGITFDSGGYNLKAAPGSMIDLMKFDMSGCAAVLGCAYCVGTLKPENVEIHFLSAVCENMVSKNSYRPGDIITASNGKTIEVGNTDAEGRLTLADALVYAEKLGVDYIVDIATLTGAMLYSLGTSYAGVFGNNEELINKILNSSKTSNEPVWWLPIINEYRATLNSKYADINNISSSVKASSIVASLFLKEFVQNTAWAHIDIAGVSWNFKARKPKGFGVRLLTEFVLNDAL

[3] = Luminescence Cell-Based Dose Confirmation to Identify Activators of 5'UTR Stem-Loop Driven Alpha-Synuclein mRNA Translation in H4 Neuroglioblastoma Cells. [Related pubchem assays: 1829 (Project Summary), 1814 (Primary HTS)]; assay type: functional
[4] = biological target: Peroxisome proliferator-activated receptor gamma/Nuclear receptor coactivator 1 (Homo sapiens, UniProt P37231); assay type: functional;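 further: agonist potency as compounds enhance coactivator SRC-1 recruitment to PPARgamma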
[5] = viability of uninfected HEp-2 cells – cell-based, HTS, cytotoxicity control for RSV inhibitor project, dose response (AID 2410); assay type: functional; details: human respiratory syncytial virus
[6] = Luminescence Cell-Based Dose Response HTS to Identify Activators of Luciferase Translation or Activity in H4 […] Cells. [Related pubchem assays: 1829 (Project Summary), 1814 (Primary HTS)]; assay type: functional
[7] = biological target: Peroxisome proliferator-activated receptor gamma/Nuclear receptor coactivator 3 (Homo sapiens, UniProt P37231); assay type: functional;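 further: agonist potency for raising coactivator recruitment to the receptor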
[8] = biological target: Peroxisome proliferator-activated receptor gamma/Nuclear receptor coactivator 2 (Homo sapiens, UniProt P37231); assay type: functional;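 further: agonist potency for raising coactivator recruitment to the receptor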
[9] = test system: H4; assay: Luminescence Cell-Based Dose Response HTS to Identify Activators of 5'UTR Stem-Loop Driven Prion Protein mRNA Translation in H4 Neuroglioblastoma Cells. [Related pubchem assays: 1829 (Project Summary), 1814 (Primary HTS)]; assay type: functional; details: Homo sapiens
[10] = Luminescence Cell-Based Dose Response to Identify Activators of 5'UTR Stem-Loop Driven Prion Protein mRNA Translation in H4-C Neuroglioblastoma Cells. [Related pubchem assays: 1829 (Project Summary), 1814 (Primary HTS)]; assay type: functional
[11] = Luminescence Cell-Based Dose Response to Identify Activators of Luciferase Translation or Activity in H4-C Neuroglioblastoma Cells. [Related pubchem assays: 1829 (Project Summary), 1814 (Primary HTS)]; assay type: functional
[12] = biological target: T2, Aminopeptidase N (Plasmodium falciparum FcB1/Columbia, UniProt O96935); assay: malaria alanyl aminopeptidase activity blockers – biochemical, fluorogenic H-Leu-NHMec substrate, 1536-well (AID 1445); parameters: species or system Plasmodium falciparum 3D7, 3D7
T2 sequence (O96935 whole entry): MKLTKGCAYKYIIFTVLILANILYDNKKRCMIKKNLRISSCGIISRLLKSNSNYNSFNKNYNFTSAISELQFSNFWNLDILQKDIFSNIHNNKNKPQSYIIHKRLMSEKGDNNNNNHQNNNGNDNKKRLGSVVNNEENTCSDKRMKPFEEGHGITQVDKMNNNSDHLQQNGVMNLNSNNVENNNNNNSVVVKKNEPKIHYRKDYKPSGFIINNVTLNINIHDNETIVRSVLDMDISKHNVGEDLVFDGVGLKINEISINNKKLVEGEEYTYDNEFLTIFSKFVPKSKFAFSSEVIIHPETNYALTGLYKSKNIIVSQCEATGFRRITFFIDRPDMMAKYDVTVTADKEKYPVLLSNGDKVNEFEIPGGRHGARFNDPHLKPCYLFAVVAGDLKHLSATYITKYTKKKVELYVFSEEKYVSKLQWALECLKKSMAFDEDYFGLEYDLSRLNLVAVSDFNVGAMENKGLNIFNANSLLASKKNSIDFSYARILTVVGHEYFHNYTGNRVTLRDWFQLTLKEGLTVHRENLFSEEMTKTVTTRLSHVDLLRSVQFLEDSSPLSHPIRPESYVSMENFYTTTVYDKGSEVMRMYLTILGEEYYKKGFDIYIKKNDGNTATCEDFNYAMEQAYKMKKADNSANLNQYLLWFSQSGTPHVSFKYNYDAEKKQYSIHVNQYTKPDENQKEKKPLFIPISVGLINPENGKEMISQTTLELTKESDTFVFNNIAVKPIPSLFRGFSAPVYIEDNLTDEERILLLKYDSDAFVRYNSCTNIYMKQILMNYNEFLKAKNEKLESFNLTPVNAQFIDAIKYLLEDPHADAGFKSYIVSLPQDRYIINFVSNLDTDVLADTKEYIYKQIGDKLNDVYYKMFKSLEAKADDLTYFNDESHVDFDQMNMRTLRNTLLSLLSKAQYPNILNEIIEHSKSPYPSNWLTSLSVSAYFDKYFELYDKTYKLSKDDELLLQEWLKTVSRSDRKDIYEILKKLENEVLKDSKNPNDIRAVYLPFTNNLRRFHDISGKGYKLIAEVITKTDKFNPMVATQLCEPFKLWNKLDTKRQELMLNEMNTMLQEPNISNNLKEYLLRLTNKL

[13] = biological target: T3, NADPH oxidase 1 (Homo sapiens, UniProt Q9Y5S8); assay type: functional, cell-based;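 further: Cell-based assay with luminescence read-out, IC50 derived from inhibitor dose-response curves; intracellular ROS from endogenous NOX1 in intact HT29 colon cancer cells; potency of inhibitors that lower the ROS luminescence signal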
T3 sequence (Q9Y5S8 whole entry): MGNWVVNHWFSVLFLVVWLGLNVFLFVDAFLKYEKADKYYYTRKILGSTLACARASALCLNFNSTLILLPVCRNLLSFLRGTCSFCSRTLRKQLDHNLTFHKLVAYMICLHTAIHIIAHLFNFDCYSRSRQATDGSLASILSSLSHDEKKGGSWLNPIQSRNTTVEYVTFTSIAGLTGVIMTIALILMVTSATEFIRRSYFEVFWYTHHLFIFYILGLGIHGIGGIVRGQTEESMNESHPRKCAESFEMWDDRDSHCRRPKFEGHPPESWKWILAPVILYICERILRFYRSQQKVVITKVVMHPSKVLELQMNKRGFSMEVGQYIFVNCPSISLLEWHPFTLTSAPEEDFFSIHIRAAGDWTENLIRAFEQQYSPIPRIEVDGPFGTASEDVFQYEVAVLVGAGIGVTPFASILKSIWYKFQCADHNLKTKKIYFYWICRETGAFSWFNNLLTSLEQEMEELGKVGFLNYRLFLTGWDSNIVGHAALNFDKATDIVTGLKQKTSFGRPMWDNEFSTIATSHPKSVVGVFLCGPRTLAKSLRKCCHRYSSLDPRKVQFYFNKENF

[14] = biological target: T4, Zinc finger protein mex-5 (Caenorhabditis elegans, UniProt Q9XUB2); assay: potency of MEX-5 RNA-binding blockers – biochemical, C. elegans, fluorescence polarization, dose response (AID 1960)
T4 sequence (Q9XUB2 whole entry): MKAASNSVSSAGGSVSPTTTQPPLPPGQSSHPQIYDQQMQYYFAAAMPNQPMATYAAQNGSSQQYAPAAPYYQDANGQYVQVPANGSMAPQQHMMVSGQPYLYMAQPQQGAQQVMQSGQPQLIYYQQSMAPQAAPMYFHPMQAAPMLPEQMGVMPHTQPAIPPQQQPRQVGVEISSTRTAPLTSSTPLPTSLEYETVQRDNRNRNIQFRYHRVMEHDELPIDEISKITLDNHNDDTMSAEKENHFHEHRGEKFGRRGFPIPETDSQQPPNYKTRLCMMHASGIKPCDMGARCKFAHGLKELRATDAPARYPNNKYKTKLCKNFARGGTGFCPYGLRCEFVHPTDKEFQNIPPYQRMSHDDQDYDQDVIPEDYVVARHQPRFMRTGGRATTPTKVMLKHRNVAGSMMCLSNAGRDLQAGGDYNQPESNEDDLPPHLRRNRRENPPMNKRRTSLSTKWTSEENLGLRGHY

[15] = test system: HeLa; assay: viability loss in HeLa cells – cell-based, 24 h, cherry-picked samples, cytotoxicity control, dose response (AID 504726); assay type: functional; details: Homo sapiens;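 further: potency for cytotoxicity as loss of luminescence signal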
[16] = biological target: T5, RNA-binding protein pos-1 (Caenorhabditis elegans, UniProt G5EF15); assay: disruptors of C. elegans POS-1 RNA interaction – biochemical, fluorescence polarization, dose response (AID 1964);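 further: purified POS-1 fused to maltose binding protein made in E. coli; potency of compounds blocking POS-1 binding to fluorescent RNA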
T5 sequence (G5EF15 whole entry): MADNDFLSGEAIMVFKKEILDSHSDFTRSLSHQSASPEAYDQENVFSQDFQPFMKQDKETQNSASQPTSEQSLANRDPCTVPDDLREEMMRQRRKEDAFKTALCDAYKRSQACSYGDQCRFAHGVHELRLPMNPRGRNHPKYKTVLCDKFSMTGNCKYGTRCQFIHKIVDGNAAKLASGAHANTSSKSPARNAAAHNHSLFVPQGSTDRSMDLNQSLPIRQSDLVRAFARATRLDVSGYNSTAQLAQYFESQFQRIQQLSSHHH

[17] = HEK-293T cell viability reduction – luminescence, B-cell screen hits, cytotoxicity control for BCR NF-kB inhibitor project, dose response (AID 489021); assay type: functional, cell-based;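 further: HEK-293T cells carrying an NF-kB luciferase reporter; cells exposed to compound for about 14 hours before viability readout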
[18] = Luminescence Cell-Based Dose Response HTS to Identify Inhibitors of 5'UTR Stem-Loop Driven Prion Protein mRNA Translation in H4 Neuroglioblastoma Cells. [Related pubchem assays: 1827 (Project Summary), 1813 (Primary HTS)]; assay type: functional
[19] = alpha-synuclein stem-loop luciferase translation blockers – H4 neuroglioma cells, luminescence, confirmation (AID 1988); assay type: functional, cell-based
[20] = luciferase reporter signal suppression in cells – H4 neuroglioma cells, luminescence, dose response (AID 1990); assay type: functional, cell-based
[21] = test system: H9c2; assay: cells; assay type: functional, cell-based; details: Rattus norvegicus, H9c2, Myocardium;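 further: confirmatory concentration-response retest of ultra-high-throughput screening hits for modulation of myocardial damage; cell death induced by hydrogen peroxide oxidative stress; compound pretreatment for 60 min then peroxide exposure for 2 h; potency is for protecting the cells against peroxide damage rather than for killing them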
[22] = biological target: G-protein coupled receptor 55 (Homo sapiens, UniProt Q9Y2T6); assay: selective activators of receptor GPR55 – imaging, U2OS cells, beta-arrestin-GFP redistribution, primary screen (AID 1961); assay type: functional
Chain of G-protein coupled receptor 55 (Q9Y2T6 whole entry): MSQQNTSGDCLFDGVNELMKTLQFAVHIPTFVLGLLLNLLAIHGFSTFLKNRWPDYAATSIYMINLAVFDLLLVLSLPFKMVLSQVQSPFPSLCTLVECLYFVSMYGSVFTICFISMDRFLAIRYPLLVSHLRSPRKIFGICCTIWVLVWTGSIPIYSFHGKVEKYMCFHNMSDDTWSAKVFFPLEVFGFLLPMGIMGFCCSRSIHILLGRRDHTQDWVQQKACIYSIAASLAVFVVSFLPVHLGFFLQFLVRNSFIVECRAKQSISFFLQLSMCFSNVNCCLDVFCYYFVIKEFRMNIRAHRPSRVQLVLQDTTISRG

Chain of Peroxisome proliferator-activated receptor gamma/Nuclear receptor coactivator 1 (P37231 whole entry): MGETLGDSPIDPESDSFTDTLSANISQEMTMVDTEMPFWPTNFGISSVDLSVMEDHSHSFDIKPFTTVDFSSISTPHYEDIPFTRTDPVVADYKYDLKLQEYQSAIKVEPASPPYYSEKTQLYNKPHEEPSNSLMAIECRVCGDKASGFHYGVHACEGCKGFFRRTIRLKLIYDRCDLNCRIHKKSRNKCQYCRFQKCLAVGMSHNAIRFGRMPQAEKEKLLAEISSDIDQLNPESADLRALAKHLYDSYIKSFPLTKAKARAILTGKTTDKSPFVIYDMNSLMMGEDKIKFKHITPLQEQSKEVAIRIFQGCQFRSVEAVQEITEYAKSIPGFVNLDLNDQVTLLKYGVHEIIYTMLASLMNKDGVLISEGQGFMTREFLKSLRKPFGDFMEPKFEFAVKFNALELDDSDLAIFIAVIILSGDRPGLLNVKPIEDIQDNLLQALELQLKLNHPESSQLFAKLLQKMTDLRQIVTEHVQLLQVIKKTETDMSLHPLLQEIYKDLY
Chain of Peroxisome proliferator-activated receptor gamma/Nuclear receptor coactivator 1 (Q15788 whole entry, further chain): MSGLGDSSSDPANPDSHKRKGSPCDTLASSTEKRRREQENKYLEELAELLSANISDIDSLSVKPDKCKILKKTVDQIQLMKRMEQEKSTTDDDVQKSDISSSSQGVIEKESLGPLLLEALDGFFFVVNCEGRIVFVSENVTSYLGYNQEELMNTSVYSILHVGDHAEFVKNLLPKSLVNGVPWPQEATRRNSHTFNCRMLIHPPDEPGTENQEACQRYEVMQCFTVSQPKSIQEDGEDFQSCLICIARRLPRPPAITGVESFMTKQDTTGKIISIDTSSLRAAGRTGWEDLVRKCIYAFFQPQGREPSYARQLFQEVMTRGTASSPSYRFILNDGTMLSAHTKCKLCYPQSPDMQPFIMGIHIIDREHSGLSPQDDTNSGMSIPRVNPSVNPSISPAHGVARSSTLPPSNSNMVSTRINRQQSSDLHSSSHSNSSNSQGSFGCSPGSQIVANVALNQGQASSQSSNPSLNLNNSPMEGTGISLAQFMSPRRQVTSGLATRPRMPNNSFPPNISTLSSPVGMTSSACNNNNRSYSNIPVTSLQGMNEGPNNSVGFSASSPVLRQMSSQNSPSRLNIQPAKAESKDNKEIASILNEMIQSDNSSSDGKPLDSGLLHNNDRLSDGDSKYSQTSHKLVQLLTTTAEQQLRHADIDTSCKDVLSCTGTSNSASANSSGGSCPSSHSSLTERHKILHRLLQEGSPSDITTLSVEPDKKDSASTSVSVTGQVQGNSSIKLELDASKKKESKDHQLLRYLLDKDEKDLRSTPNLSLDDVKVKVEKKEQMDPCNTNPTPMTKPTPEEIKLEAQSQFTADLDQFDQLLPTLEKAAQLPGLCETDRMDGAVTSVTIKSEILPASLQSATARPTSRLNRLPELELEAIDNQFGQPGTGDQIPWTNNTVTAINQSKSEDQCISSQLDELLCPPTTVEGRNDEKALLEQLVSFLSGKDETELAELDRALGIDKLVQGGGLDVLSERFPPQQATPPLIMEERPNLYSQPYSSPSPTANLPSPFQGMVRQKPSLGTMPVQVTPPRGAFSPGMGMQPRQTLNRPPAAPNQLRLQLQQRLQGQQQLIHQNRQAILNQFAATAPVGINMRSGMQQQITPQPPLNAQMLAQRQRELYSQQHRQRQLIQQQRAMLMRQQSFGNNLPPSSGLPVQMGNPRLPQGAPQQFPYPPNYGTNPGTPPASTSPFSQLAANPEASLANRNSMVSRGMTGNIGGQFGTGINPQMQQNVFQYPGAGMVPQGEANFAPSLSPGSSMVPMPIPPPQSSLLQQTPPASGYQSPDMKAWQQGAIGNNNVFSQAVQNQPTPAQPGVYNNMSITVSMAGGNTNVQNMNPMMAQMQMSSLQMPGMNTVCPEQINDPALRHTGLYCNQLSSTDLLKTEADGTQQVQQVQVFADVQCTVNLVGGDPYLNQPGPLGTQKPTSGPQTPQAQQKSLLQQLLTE
Chain of Peroxisome proliferator-activated receptor gamma/Nuclear receptor coactivator 2 (P37231 whole entry): as the sequence (P37231 whole entry) above
Chain of Peroxisome proliferator-activated receptor gamma/Nuclear receptor coactivator 2 (Q15596 whole entry, further chain): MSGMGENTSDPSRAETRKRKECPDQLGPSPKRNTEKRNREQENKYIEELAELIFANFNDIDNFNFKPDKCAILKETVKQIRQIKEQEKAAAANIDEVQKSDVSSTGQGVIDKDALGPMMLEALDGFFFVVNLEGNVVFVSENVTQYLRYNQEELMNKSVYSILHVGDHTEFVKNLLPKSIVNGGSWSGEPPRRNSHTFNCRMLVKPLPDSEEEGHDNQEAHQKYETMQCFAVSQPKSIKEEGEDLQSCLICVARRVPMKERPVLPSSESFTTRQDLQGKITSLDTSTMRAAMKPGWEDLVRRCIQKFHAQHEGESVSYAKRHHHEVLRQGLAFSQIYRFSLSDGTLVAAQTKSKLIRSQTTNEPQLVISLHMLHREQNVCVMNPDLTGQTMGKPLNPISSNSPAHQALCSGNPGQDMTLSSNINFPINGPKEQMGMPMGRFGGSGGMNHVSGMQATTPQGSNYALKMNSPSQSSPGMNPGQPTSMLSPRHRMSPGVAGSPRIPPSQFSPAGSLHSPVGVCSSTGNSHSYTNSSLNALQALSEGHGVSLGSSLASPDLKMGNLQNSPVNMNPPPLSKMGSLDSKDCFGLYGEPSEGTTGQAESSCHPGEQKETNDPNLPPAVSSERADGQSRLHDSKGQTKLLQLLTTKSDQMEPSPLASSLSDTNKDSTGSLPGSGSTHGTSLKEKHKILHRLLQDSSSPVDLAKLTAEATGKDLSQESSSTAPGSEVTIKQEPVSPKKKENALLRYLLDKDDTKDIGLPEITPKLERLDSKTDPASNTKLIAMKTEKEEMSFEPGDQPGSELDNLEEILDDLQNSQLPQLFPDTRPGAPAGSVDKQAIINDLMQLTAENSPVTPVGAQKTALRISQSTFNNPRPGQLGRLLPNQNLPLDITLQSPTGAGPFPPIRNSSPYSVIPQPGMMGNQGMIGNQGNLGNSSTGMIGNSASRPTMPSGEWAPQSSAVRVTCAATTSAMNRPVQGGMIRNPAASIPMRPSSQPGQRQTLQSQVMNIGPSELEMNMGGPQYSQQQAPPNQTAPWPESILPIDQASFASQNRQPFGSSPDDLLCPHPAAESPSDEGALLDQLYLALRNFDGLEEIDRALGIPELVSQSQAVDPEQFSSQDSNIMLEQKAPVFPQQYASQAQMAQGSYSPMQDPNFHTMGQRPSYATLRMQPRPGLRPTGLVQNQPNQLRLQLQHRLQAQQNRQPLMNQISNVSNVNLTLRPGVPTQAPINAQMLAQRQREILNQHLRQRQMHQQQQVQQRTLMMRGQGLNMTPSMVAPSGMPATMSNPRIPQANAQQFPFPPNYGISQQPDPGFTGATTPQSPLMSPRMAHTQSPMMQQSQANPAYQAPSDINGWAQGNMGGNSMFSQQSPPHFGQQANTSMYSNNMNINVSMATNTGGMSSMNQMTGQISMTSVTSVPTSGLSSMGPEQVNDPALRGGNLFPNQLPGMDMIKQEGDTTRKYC
Chain of Eukaryotic translation initiation factor 4E (P63073 whole entry): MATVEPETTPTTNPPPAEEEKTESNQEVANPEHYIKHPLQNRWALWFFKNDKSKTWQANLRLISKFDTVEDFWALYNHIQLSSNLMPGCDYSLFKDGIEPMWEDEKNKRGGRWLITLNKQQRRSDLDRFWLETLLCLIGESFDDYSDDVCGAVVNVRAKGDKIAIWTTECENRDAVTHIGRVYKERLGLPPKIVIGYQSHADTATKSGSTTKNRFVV

O=C(CC1CCCCC1)NCC1CCCO1 (configuration not stated)
IC50 [1]: > 64 µM (inactive)

N#C/C(=C/c1cn(CC(=O)O)c2ccccc12)c1ccc(F)cc1
IC50 [2]: 21.2 µM (active)

Cc1cc(/C=C2/C(=O)N(C)C(=S)N2C)c(C)n1C1CC1
EC50 [3]: 343 nM (active) | EC50 [4]: > 79.4 µM (not active) | CC50 [5]: 40.7 µM (active) | EC50 [6]: < 100 nM (inconclusive) | EC50 [7]: > 79.4 µM (not active) | EC50 [8]: > 79.4 µM (not active) | EC50 [9]: > 120 µM (not active) | EC50 [10]: 297 nM (active) | EC50 [11]: 337 nM (active)

O=c1oc2c(CN3CCCCC3)c(O)ccc2c2c1CCCC2
IC50 [12]: 65.3 µM (active)

Cc1ccccc1-c1nc(-c2ccccc2)c(-c2ccccc2)[nH]1
IC50 [13]: > 17 µM (not active)

CCN1/C(=C2/SC(=S)N(NC(C)=O)C2=O)Sc2ccc(OC)cc21
EC50 [14]: > 300 µM (not active) | AC50 [15]: 122 µM (active) | EC50 [16]: > 300 µM (not active)

COc1cc(OC)cc(-c2cc3nc(C)c(CCC(=O)Nc4nc(C)cs4)c(C)n3n2)c1
IC50 [17]: > 80 µM (inactive) | EC50 [18]: 13.2 µM (active) | EC50 [19]: 24.2 µM (active) | EC50 [20]: 16.9 µM (active) | IC50 [21]: > 79 µM (inactive)

CCOC(=O)C1=NN(C(=O)c2cccc(Br)c2)C(O)(C(C)(C)C)C1 (configuration not stated)
IC50 [12]: 44 µM (active)

CCc1cccc(OCC(=O)Nc2cc(S(=O)(=O)N3CCOCC3)ccc2N2CCCC2)c1
EC50 [22]: 4.03 µM (active)

O=C(Oc1cccc(-n2cnnn2)c1)c1sc2ccccc2c1Cl
IC50 [13]: > 17 µM (not active)

O=C(O/N=C(\c1ccccc1)c1ccccn1)c1cccc2ccccc12
EC50 [22]: > 32 µM (inactive)

COC(=O)c1ccc(OCC(O)CN2CCC(C)CC2)cc1 (configuration not stated)
AC50 [15]: 124 µM (active)

NNC(=O)c1cnn(-c2ccccc2)c1-n1cccc1
EC50 [4]: > 79.4 µM (not active) | EC50 [7]: > 79.4 µM (not active) | EC50 [8]: > 79.4 µM (not active)

COc1ccc(CCNC(=O)Cn2cnc3c(cnn3-c3ccccc3Cl)c2=O)cc1OC
IC50 [1]: > 64 µM (inactive)

COc1ccc(OC(=O)c2sc3ccccc3c2Cl)cc1
IC50 [13]: > 17 µM (not active)

O=C(O)c1ccc(/C=N/Nc2ccc(F)cc2F)cc1
IC50 [2]: 99.4 µM (active)

CCOC(=O)c1c(NC(=O)C(C)Sc2cn(C)c3ccccc23)sc2c1CCC2 (configuration not stated)
EC50 [4]: 29.2 µM (not active) | EC50 [7]: 32.3 µM (not active) | EC50 [8]: 29.5 µM (not active)

O=C(/C=C/c1cccs1)NC(=S)Nc1ccc(C(=O)O)cc1
IC50 [12]: 28.8 µM (active)

Cc1ccccc1CSc1nncn1N
IC50 [1]: > 64 µM (inactive)
